In PubChem BioAssay (NCI):
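These data come from cells grown in 96-well plates and exposed to compound for 48 hours at five concentrations. Definition used: TGI = concentration required for complete inhibition of growth.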

Assays:
Assay in all cases: growth of human tumour cells (NCI), 48 h
786-0 renal = test system: 786-0 renal
A498 renal = test system: A498 renal
A549 NSCLC = test system: A549 NSCLC
ACHN renal = test system: ACHN renal
BT-549 breast = test system: BT-549 breast
CAKI-1 renal = test system: CAKI-1 renal
CCRF-CEM leukemia = test system: CCRF-CEM leukemia
COLO 205 colon = test system: COLO 205 colon
DU-145 prostate = test system: DU-145 prostate
EKVX NSCLC = test system: EKVX NSCLC
HCC-2998 colon = test system: HCC-2998 colon
HCT-116 colon = test system: HCT-116 colon
HCT-15 colon = test system: HCT-15 colon
HL-60(TB) leukemia = test system: HL-60(TB) leukemia
HOP-62 NSCLC = test system: HOP-62 NSCLC
HOP-92 NSCLC = test system: HOP-92 NSCLC
HS 578T breast = test system: HS 578T breast
HT29 colon = test system: HT29 colon
IGROV1 ovarian = test system: IGROV1 ovarian
K-562 leukemia = test system: K-562 leukemia
KM12 colon = test system: KM12 colon
LOX IMVI melanoma = test system: LOX IMVI melanoma
M14 melanoma = test system: M14 melanoma
MALME-3M melanoma = test system: MALME-3M melanoma
MCF7 breast = test system: MCF7 breast
MDA-MB-231 breast = test system: MDA-MB-231 breast
MDA-MB-435 = test system: MDA-MB-435
MDA-N = test system: MDA-N
MOLT-4 leukemia = test system: MOLT-4 leukemia
NCI-H226 lung = test system: NCI-H226 lung
NCI-H23 lung = test system: NCI-H23 lung
NCI-H460 lung = test system: NCI-H460 lung
NCI-H522 lung = test system: NCI-H522 lung
NCI/ADR-RES ovarian = test system: NCI/ADR-RES ovarian
OVCAR-3 ovarian = test system: OVCAR-3 ovarian
OVCAR-4 ovarian = test system: OVCAR-4 ovarian
OVCAR-5 ovarian = test system: OVCAR-5 ovarian
OVCAR-8 ovarian = test system: OVCAR-8 ovarian
PC-3 prostate = test system: PC-3 prostate
RPMI-8226 leukemia = test system: RPMI-8226 leukemia
RXF 393 renal = test system: RXF 393 renal
SF-268 CNS = test system: SF-268 CNS
SF-295 CNS = test system: SF-295 CNS
SF-539 CNS = test system: SF-539 CNS
SK-MEL-2 melanoma = test system: SK-MEL-2 melanoma
SK-MEL-28 melanoma = test system: SK-MEL-28 melanoma
SK-MEL-5 melanoma = test system: SK-MEL-5 melanoma
SK-OV-3 ovarian = test system: SK-OV-3 ovarian
SN12C renal = test system: SN12C renal
SNB-19 CNS = test system: SNB-19 CNS
SNB-75 CNS = test system: SNB-75 CNS
SW-620 colon = test system: SW-620 colon
T-47D breast = test system: T-47D breast
TK-10 renal = test system: TK-10 renal
UACC-257 melanoma = test system: UACC-257 melanoma
UACC-62 melanoma = test system: UACC-62 melanoma
UO-31 renal = test system: UO-31 renal
SR leukemia = test system: SR leukemia
U251 CNS = test system: U251 CNS

Q: What does the source list for `C=CCN(c1cc(OCc2ccccc2)c(NC(C)=O)cc1[N+](=O)[O-])S(C)(=O)=O`?
A: TGI (786-0 renal): 49.2 µM; TGI (A498 renal): 41.6 µM; TGI (A549 NSCLC): > 100 µM; TGI (ACHN renal): > 100 µM; TGI (BT-549 breast): 93.3 µM; TGI (CAKI-1 renal): > 100 µM; TGI (CCRF-CEM leukemia): > 100 µM; TGI (COLO 205 colon): > 100 µM; TGI (DU-145 prostate): > 100 µM; TGI (EKVX NSCLC): 33.8 µM; TGI (HCC-2998 colon): > 100 µM; TGI (HCT-116 colon): > 100 µM; TGI (HCT-15 colon): > 100 µM; TGI (HL-60(TB) leukemia): > 100 µM; TGI (HOP-62 NSCLC): 53 µM; TGI (HOP-92 NSCLC): 41.2 µM; TGI (HS 578T breast): 56.7 µM; TGI (HT29 colon): > 100 µM; TGI (IGROV1 ovarian): 45.4 µM; TGI (K-562 leukemia): > 100 µM; TGI (KM12 colon): > 100 µM; TGI (LOX IMVI melanoma): > 100 µM; TGI (M14 melanoma): > 100 µM; TGI (MALME-3M melanoma): 73.2 µM; TGI (MCF7 breast): > 100 µM; TGI (MDA-MB-231 breast): 29.5 µM; TGI (MDA-MB-435): > 100 µM; TGI (MDA-N): > 100 µM; TGI (MOLT-4 leukemia): > 100 µM; TGI (NCI-H226 lung): 25.2 µM; TGI (NCI-H23 lung): 32.3 µM; TGI (NCI-H460 lung): > 100 µM; TGI (NCI-H522 lung): > 100 µM; TGI (NCI/ADR-RES ovarian): > 100 µM; TGI (OVCAR-3 ovarian): > 100 µM; TGI (OVCAR-4 ovarian): > 100 µM; TGI (OVCAR-5 ovarian): > 100 µM; TGI (OVCAR-8 ovarian): 50.3 µM; TGI (PC-3 prostate): > 100 µM; TGI (RPMI-8226 leukemia): > 100 µM; TGI (RXF 393 renal): 40.3 µM; TGI (SF-268 CNS): 51.3 µM; TGI (SF-295 CNS): 60.4 µM; TGI (SF-539 CNS): 31.8 µM; TGI (SK-MEL-2 melanoma): 73.1 µM; TGI (SK-MEL-28 melanoma): > 100 µM; TGI (SK-MEL-5 melanoma): > 100 µM; TGI (SK-OV-3 ovarian): 38.7 µM; TGI (SN12C renal): > 100 µM; TGI (SNB-19 CNS): 36.1 µM; TGI (SNB-75 CNS): 43.6 µM; TGI (SW-620 colon): > 100 µM; TGI (T-47D breast): > 100 µM; TGI (TK-10 renal): > 100 µM; TGI (UACC-257 melanoma): > 100 µM; TGI (UACC-62 melanoma): > 100 µM; TGI (UO-31 renal): > 100 µM

Q: Which results are given for `S=C1C(=Nc2ccccc2)N(c2ccccc2)/C(=N\c2ccccn2)N1c1ccccc1`?
A: TGI (786-0 renal): 27.6 µM; TGI (A498 renal): 30.4 µM; TGI (A549 NSCLC): 38.6 µM; TGI (ACHN renal): 15.9 µM; TGI (CAKI-1 renal): 29 µM; TGI (CCRF-CEM leukemia): > 100 µM; TGI (COLO 205 colon): 22.7 µM; TGI (DU-145 prostate): 35 µM; TGI (EKVX NSCLC): 29.1 µM; TGI (HCC-2998 colon): 27.1 µM; TGI (HCT-116 colon): 30.4 µM; TGI (HCT-15 colon): 27.7 µM; TGI (HL-60(TB) leukemia): > 100 µM; TGI (HOP-62 NSCLC): 30.1 µM; TGI (HOP-92 NSCLC): 25.7 µM; TGI (HS 578T breast): 39.5 µM; TGI (HT29 colon): 24.8 µM; TGI (IGROV1 ovarian): 26.2 µM; TGI (K-562 leukemia): > 100 µM; TGI (KM12 colon): 25.5 µM; TGI (LOX IMVI melanoma): 21.9 µM; TGI (MALME-3M melanoma): 30.6 µM; TGI (MDA-MB-231 breast): 31.6 µM; TGI (MDA-MB-435): 28.5 µM; TGI (MDA-N): 18.5 µM; TGI (MOLT-4 leukemia): > 100 µM; TGI (NCI-H226 lung): 36.8 µM; TGI (NCI-H23 lung): 25 µM; TGI (NCI-H460 lung): 27 µM; TGI (NCI-H522 lung): 3.59 µM; TGI (NCI/ADR-RES ovarian): 33.7 µM; TGI (OVCAR-4 ovarian): 29.5 µM; TGI (OVCAR-5 ovarian): 29.9 µM; TGI (OVCAR-8 ovarian): 27.5 µM; TGI (PC-3 prostate): 25.4 µM; TGI (RPMI-8226 leukemia): > 100 µM; TGI (RXF 393 renal): 22.4 µM; TGI (SF-268 CNS): 31.4 µM; TGI (SF-295 CNS): 29.9 µM; TGI (SF-539 CNS): 20.9 µM; TGI (SK-MEL-2 melanoma): 24.6 µM; TGI (SK-MEL-28 melanoma): 30.5 µM; TGI (SK-MEL-5 melanoma): 27.2 µM; TGI (SK-OV-3 ovarian): 36 µM; TGI (SN12C renal): 24 µM; TGI (SNB-19 CNS): 29.9 µM; TGI (SNB-75 CNS): 28.3 µM; TGI (SR leukemia): 60.8 µM; TGI (SW-620 colon): 27.9 µM; TGI (T-47D breast): 41.5 µM; TGI (TK-10 renal): 28.8 µM; TGI (U251 CNS): 29.5 µM; TGI (UACC-257 melanoma): 27.3 µM; TGI (UACC-62 melanoma): 17.1 µM; TGI (UO-31 renal): 26.1 µM
